Counter-ions that a name gives are not always drawn.
Target: ROCK2 (Homo sapiens, UniProt O75116)
Assay: ROCK assay: phosphorylation of FITC peptide substrate, LABCHIP 3000 mobility shift
Assay type: biochemical
Settings: 5 μM ATP, 1.5 μM peptide substrate; read-out: ROCK2 Activity (ROCK IC50 range)
Procedure, shortened: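 IC50 values come from curve-fitting percent kinase inhibition across a compound dilution series. The reaction is started with Rho kinase variant in HEPES pH 7.5 buffer with MgCl2, Brij-35 and DTT, with 5 μM ATP, 1.5 μM FITC-labelled peptide and under 2% DMSO. After EDTA quench, product and substrate are separated by microfluidic mobility shift.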

Chain of ROCK2 (O75116 whole entry, species assumed): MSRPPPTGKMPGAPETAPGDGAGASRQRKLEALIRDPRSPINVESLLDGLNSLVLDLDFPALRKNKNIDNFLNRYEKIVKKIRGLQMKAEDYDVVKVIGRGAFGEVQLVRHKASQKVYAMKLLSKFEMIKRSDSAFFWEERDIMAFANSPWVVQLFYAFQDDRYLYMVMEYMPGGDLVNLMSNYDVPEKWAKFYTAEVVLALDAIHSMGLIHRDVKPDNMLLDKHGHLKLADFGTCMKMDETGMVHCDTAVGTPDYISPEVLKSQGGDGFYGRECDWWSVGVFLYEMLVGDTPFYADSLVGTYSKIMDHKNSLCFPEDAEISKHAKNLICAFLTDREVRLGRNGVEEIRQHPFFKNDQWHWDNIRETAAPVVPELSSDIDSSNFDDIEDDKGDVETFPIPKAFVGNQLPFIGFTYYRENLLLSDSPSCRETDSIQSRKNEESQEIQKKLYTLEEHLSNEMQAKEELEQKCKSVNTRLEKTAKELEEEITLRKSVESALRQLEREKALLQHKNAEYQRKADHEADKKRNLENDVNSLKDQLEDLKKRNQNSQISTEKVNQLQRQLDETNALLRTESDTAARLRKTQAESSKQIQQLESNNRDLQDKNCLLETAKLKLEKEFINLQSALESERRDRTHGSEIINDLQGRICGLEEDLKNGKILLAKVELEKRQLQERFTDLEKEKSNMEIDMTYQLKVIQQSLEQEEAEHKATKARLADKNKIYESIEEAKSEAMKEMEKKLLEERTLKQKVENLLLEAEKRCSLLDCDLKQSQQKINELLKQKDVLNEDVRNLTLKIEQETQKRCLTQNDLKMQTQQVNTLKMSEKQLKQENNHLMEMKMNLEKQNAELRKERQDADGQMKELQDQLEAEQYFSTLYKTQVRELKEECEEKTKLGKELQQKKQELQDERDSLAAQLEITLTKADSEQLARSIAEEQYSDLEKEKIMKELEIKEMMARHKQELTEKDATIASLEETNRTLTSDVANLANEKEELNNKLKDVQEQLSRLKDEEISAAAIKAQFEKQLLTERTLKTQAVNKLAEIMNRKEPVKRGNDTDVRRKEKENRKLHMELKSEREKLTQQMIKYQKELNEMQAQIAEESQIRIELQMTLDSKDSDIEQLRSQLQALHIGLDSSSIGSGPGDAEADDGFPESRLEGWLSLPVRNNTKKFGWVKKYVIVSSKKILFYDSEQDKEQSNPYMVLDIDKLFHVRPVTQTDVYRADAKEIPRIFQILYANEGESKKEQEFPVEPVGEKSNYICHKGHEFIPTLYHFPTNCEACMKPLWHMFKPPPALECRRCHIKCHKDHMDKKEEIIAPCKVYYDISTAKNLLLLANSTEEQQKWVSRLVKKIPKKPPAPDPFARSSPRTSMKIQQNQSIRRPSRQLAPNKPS

SMILES	IC50
[H][C@]1(c2n[nH]c(=O)c3ccccc32)C[C@]2(C[C@@H](NC(=O)c3cnc4cc(-c5cnn(C)c5)ccn34)C2)C1 (stereo partly drawn) [Example 440, 7-(1-methyl-1H-pyrazol-4-yl)-N-((aR)-6-(4-oxo-3,4-dihydrophthalazin-1-yl)spiro[3.3]heptan-2-yl)imidazo[1,2-a]pyridine-3-carboxamide]	0.0002 to 0.002 µM
[H][C@]1(c2n[nH]c(=O)c3ccccc32)C[C@]2(C[C@@H](NC(=O)c3cnc4cc(-c5cnn(C(C)C)c5)ccn34)C2)C1 (stereo partly drawn) [Example 441, 7-(1-isopropyl-1H-pyrazol-4-yl)-N-((aR)-6-(4-oxo-3,4-dihydrophthalazin-1-yl)spiro[3.3]heptan-2-yl)imidazo[1,2-a]pyridine-3-carboxamide]	0.0002 to 0.002 µM
[2H]C([2H])([2H])n1cc(-c2ccn3c(C(=O)N[C@H]4CC5(C4)C[C@H](c4n[nH]c(=O)c6ccccc64)C5)cnc3c2)cn1 (stereo partly drawn) [Example 442, 7-(1-(methyl-d3)-1H-pyrazol-4-yl)-N-((aR)-6-(4-oxo-3,4-dihydrophthalazin-1-yl)spiro[3.3]heptan-2-yl)imidazo[1,2-a]pyridine-3-carboxamide]	0.0002 to 0.002 µM
[H][C@]1(c2n[nH]c(=O)c3ccccc32)C[C@]2(C[C@@H](NC(=O)c3cnc4cc(-c5cnn(C6CCOCC6)c5)ccn34)C2)C1 (stereo partly drawn) [Example 443]	0.0002 to 0.002 µM
[H][C@]1(c2n[nH]c(=O)c3ccccc32)C[C@]2(C[C@@H](NC(=O)c3cnc4cc(-c5cn(C(C)C)nc5C(F)(F)F)ccn34)C2)C1 (stereo partly drawn) [Example 444, 7-(1-isopropyl-3-(trifluoromethyl)-1H-pyrazol-4-yl)-N-((aR)-6-(4-oxo-3,4-dihydrophthalazin-1-yl)spiro[3.3]heptan-2-yl)imidazo[1,2-a]pyridine-3-carboxamide]	0.00201 to 0.005 µM
[H][C@]1(c2n[nH]c(=O)c3ccccc32)C[C@]2(C[C@@H](NC(=O)c3ccc(-c4cnn(CC)c4)c(F)c3)C2)C1 (stereo partly drawn) [Example 445, 4-(1-ethyl-1H-pyrazol-4-yl)-3-fluoro-N-((aR)-6-(4-oxo-3,4-dihydrophthalazin-1-yl)spiro[3.3]heptan-2-yl)benzamide]	0.0151 to 0.1 µM
[H][C@]1(c2n[nH]c(=O)c3ccccc32)C[C@]2(C[C@@H](NC(=O)c3ccc(-c4cnn(C(C)C)c4)c(F)c3)C2)C1 (stereo partly drawn) [Example 446, 3-fluoro-4-(1-isopropyl-1H-pyrazol-4-yl)-N-((aR)-6-(4-oxo-3,4-dihydrophthalazin-1-yl)spiro[3.3]heptan-2-yl)benzamide]	0.00201 to 0.005 µM
[H][C@]1(c2n[nH]c(=O)c3ccccc32)C[C@]2(C[C@@H](NC(=O)c3ccc(-c4cnn(C)c4C(F)(F)F)c(F)c3)C2)C1 (stereo partly drawn) [Example 447, 3-fluoro-4-(1-methyl-5-(trifluoromethyl)-1H-pyrazol-4-yl)-N-((aR)-6-(4-oxo-3,4-dihydrophthalazin-1-yl)spiro[3.3]heptan-2-yl)benzamide]	0.00201 to 0.005 µM
[H][C@]1(c2n[nH]c(=O)c3ccccc32)C[C@]2(C[C@@H](NC(=O)c3ccc(-c4cnn(C5CC5)c4)c(F)c3)C2)C1 (stereo partly drawn) [Example 448, 4-(1-cyclopropyl-1H-pyrazol-4-yl)-3-fluoro-N-((aR)-6-(4-oxo-3,4-dihydrophthalazin-1-yl)spiro[3.3]heptan-2-yl)benzamide]	0.00201 to 0.005 µM
[H][C@]1(c2n[nH]c(=O)c3ccccc32)C[C@]2(C[C@@H](NC(=O)c3ccc(-c4cnn(C5CCOCC5)c4)c(F)c3)C2)C1 (stereo partly drawn) [Example 449, 3-fluoro-N-((aR)-6-(4-oxo-3,4-dihydrophthalazin-1-yl)spiro[3.3]heptan-2-yl)-4-(1-(tetrahydro-2H-pyran-4-yl)-1H-pyrazol-4-yl)benzamide]	0.0051 to 0.015 µM
[H][C@]1(c2n[nH]c(=O)c3ccccc32)C[C@]2(C[C@@H](NC(=O)c3ccc(-c4cnn(C)c4)cn3)C2)C1 (stereo partly drawn) [Example 450, 5-(1-methyl-1H-pyrazol-4-yl)-N-((aR)-6-(4-oxo-3,4-dihydrophthalazin-1-yl)spiro[3.3]heptan-2-yl)picolinamide]	0.0151 to 0.1 µM
[H][C@]1(c2n[nH]c(=O)c3ccccc32)C[C@]2(C[C@@H](NC(=O)c3ccc(-c4cnn(C)c4)cc3)C2)C1 (stereo partly drawn) [Example 451, 4-(1-methyl-1H-pyrazol-4-yl)-N-((aR)-6-(4-oxo-3,4-dihydrophthalazin-1-yl)spiro[3.3]heptan-2-yl)benzamide]	0.0051 to 0.015 µM
[H][C@]1(c2n[nH]c(=O)c3ccccc32)C[C@]2(C[C@@H](NC(=O)c3cnc4cc(-c5cccnc5)ccn34)C2)C1 (stereo partly drawn) [Example 452, N-((aR)-6-(4-oxo-3,4-dihydrophthalazin-1-yl)spiro[3.3]heptan-2-yl)-7-(pyridin-3-yl)imidazo[1,2-a]pyridine-3-carboxamide]	0.0002 to 0.002 µM
[H][C@]1(c2n[nH]c(=O)c3ccccc32)C[C@]2(C[C@@H](NC(=O)c3cn4ccc(-c5cccnc5)cc4n3)C2)C1 (stereo partly drawn) [Example 453]	0.0151 to 0.1 µM
[H][C@]1(c2n[nH]c(=O)c3ccccc32)C[C@]2(C[C@@H](NC(=O)c3cn4ccc(-c5cnc(C)s5)cc4n3)C2)C1 (stereo partly drawn) [Example 454, 7-(2-methylthiazol-5-yl)-N-((aR)-6-(4-oxo-3,4-dihydrophthalazin-1-yl)spiro[3.3]heptan-2-yl)imidazo[1,2-a]pyridine-2-carboxamide]	0.0151 to 0.1 µM
Cc1ncc(-c2ccn3c(C(=O)NC4CC5(C4)CC(c4n[nH]c(=O)c6ccccc46)C5)cnc3c2)s1 [Example 455, 7-(2-methylthiazol-5-yl)-N-((aR)-6-(4-oxo-3,4-dihydrophthalazin-1-yl)spiro[3.3]heptan-2-yl)imidazo[1,2-a]pyridine-3-carboxamide]	0.00201 to 0.005 µM
O=C1c2ccccc2CN1C1CC2(CC(c3n[nH]c(=O)c4ccccc34)C2)C1 [Example 457, 4-((aR)-6-(1-oxoisoindolin-2-yl)spiro[3.3]heptan-2-yl)phthalazin-1(2H)-one]	0.0151 to 0.1 µM
O=C1N[C@@H](Cc2ccccc2)CN1[C@H]1CC2(C[C@H](c3n[nH]c(=O)c4ccccc43)C2)C1 (stereo partly drawn) [Example 458, 4-((aR)-6-((S)-4-benzyl-2-oxoimidazolidin-1-yl)spiro[3.3]heptan-2-yl)phthalazin-1(2H)-one]	0.1 to 2.1 µM
[H][C@]1(c2n[nH]c(=O)c3ccccc32)C[C@@]2(C[C@H](N3C[C@@H](Cc4ccccc4)NC3=O)C2)C1 (stereo partly drawn) [Example 459, 4-((aR)-6-((R)-4-benzyl-2-oxoimidazolidin-1-yl)spiro[3.3]heptan-2-yl)phthalazin-1(2H)-one]	0.1 to 2.1 µM
O=c1[nH]nc([C@H]2CC3(C[C@H](Nc4ccccc4[N+](=O)[O-])C3)C2)c2ccccc12 (stereo partly drawn) [Example 460, 4-((aR)-6-((2-nitrophenyl)amino)spiro[3.3]heptan-2-yl)phthalazin-1(2H)-one]	0.0151 to 0.1 µM
[H][C@]1(c2n[nH]c(=O)c3ccccc32)C[C@]2(C[C@@H](n3c(=O)[nH]c4ccccc43)C2)C1 (stereo partly drawn) [Example 461, 4-((aR)-6-(2-oxo-2,3-dihydro-1H-benzo[d]imidazol-1-yl)spiro[3.3]heptan-2-yl)phthalazin-1(2H)one]	0.1 to 2.1 µM
O=C(N[C@H]1CC2(C1)C[C@H](c1n[nH]c(=O)c3ccccc31)C2)c1cnn2cccc(C3CC3)c12 (stereo partly drawn) [Example 462, 4-cyclopropyl-N-((aR)-6-(4-oxo-3,4-dihydrophthalazin-1-yl)spiro[3.3]heptan-2-yl)pyrazolo[1,5-a]pyridine-3-carboxamide]	0.0151 to 0.1 µM
Cn1cc(-c2cnc(C(=O)N[C@H]3CC4(C3)C[C@H](c3n[nH]c(=O)c5ccccc53)C4)c(F)c2)cn1 (stereo partly drawn) [Example 463, 3-fluoro-5-(1-methyl-1H-pyrazol-4-yl)-N-((aR)-6-(4-oxo-3,4-dihydrophthalazin-1-yl)spiro[3.3]heptan-2-yl)picolinamide]	0.0151 to 0.1 µM
O=C(OC1CC2(C1)CC(c1n[nH]c(=O)c3ccccc13)C2)N1Cc2ccccc2C1 (stereo not drawn) [Example 464, 6-(4-oxo-3,4-dihydrophthalazin-1-yl)spiro[3.3]heptan-2-yl isoindoline-2-carboxylate]	0.1 to 2.1 µM
CS(=O)(=O)c1ccn2c(C(=O)N[C@H]3CC4(C3)C[C@H](c3n[nH]c(=O)c5ccccc53)C4)cnc2c1 (stereo partly drawn) [Example 465, 7-(methylsulfonyl)-N-((aR)-6-(4-oxo-3,4-dihydrophthalazin-1-yl)spiro[3.3]heptan-2-yl)imidazo[1,2-a]pyridine-3-carboxamide]	0.0051 to 0.015 µM
O=C(NC1CC2(C1)CC(c1n[nH]c(=O)c3ccccc13)C2)c1cnn2ccncc12 [Example 467, N-((aR)-6-(4-oxo-3,4-dihydrophthalazin-1-yl)spiro[3.3]heptan-2-yl)pyrazolo[1,5-a] pyrazine-3-carboxamide]	0.0151 to 0.1 µM
O=C(NC1CC2(C1)CC(c1n[nH]c(=O)c3ccccc13)C2)C1Cc2cc(Br)ccc2N1 [Example 468, 5-bromo-N-((aR)-6-(4-oxo-3,4-dihydrophthalazin-1-yl)spiro[3.3]heptan-2-yl)indoline-2-carboxamide,TFA]	0.1 to 2.1 µM
CC(C)(Oc1ccc2c(C(=O)N[C@H]3CC4(C3)C[C@H](c3n[nH]c(=O)c5ccccc53)C4)cnn2c1)C(=O)O (stereo partly drawn) [Example 469, 2-methyl-2-((3-(((aR)-6-(4-oxo-3,4-dihydrophthalazin-1-yl)spiro[3.3]heptan-2-yl)carbamoyl)pyrazolo[1,5-a]pyridin-6-yl)oxy)propanoic acid]	0.0151 to 0.1 µM
O=C(N[C@H]1CC2(C1)C[C@H](c1n[nH]c(=O)c3ccccc31)C2)c1cnc2cc(N3CCOCC3)ccn12 (stereo partly drawn) [Example 470, 7-morpholino-N-((aR)-6-(4-oxo-3,4-dihydrophthalazin-1-yl)spiro[3.3]heptan-2-yl)imidazo[1,2-a]pyridine-3-carboxamide, TFA]	0.0002 to 0.002 µM
[H][C@]1(c2n[nH]c(=O)c3ccccc32)C[C@]2(C[C@@H](NC(=O)c3cnc4cc(OC5CCC(F)(F)CC5)ccn34)C2)C1 (stereo partly drawn) [Example 471, 7-((4,4-difluoro-cyclohexyl)oxy)-N-((aR)-6-(4-oxo-3,4-dihydro-phthalazin-1-yl)spiro[3.3]heptan-2-yl)imidazo[1,2-a]pyridine-3-carboxamide, TFA]	0.00201 to 0.005 µM

— patent US9902702B2, “Spirocycloheptanes as inhibitors of rock” (BRISTOL-MYERS SQUIBB COMPANY, priority 2014, dated 2018)
